How the values were obtained:
[1] = target: T1, Human dopamine D4 receptor (Homo sapiens, UniProt P21917); experiment: G protein independent pathway: β-arrestin recruit ability (PathHunter β-galactosidase); assay type: cell-based; parameters: expressed in transfected cells; settings: β-arrestin recruitment, 90 minutes; 10 μM dopamine = 100%
T1 sequence (P21917 1-419): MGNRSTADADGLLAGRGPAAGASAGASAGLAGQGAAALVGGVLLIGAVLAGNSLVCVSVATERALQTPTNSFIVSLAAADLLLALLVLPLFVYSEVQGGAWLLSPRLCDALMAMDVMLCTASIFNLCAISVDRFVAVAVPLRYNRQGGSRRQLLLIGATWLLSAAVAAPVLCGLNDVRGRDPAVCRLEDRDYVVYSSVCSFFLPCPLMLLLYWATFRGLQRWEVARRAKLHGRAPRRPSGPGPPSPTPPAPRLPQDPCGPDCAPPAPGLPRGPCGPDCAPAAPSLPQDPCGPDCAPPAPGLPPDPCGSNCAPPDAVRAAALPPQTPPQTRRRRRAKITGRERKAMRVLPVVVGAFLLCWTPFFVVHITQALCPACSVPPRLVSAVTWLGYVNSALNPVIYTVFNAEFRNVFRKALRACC
Procedure: The activation of the G protein independent pathway was evaluated on the basis of the recruit ability of β-arrestin as follows. Cell lines transfected with D4 receptor genes were seeded in a 384-well plate, and incubated in a CO2 incubator at 37° C. for 24 hours, a solution of the present compound in DMSO was added into the cells, and then the cells were left at 37° C. for 90 minutes. Buffer containing β-galactosidase reaction substance (PathHunter Cell Assay Buffer, DiscoverRx) was added thereto, and luminescent signals in the wells were measured with a FDSS (Hamamatsu Photonics K.K.). […] The maximal activity (Emax) of the present compound was calculated according to the measured luminescent signals. EC50 value was calculated as the concentration of the present compound required to achieve a 50 response.

[2] = target: T2, human adrenergic α1A receptor (Homo sapiens, UniProt P35348); experiment: Agonistic/antagonistic activity in G protein dependent pathway (aequorin intracellular calcium luminescence), α1A; assay type: cell-based; settings: for Maximal activity on each receptor (%): α1A: 10 μM adrenaline = 100%; for inhibition at 0.1 µM / inhibition at 1 µM: against 10 μM endogenous ligand, read-out: Inhibitory activity on each receptor (%): α1A
T2 construct: expressed in transfected cells; host or cells: CHO-K1 or HEK293 cells
T2 sequence (P35348 1-466): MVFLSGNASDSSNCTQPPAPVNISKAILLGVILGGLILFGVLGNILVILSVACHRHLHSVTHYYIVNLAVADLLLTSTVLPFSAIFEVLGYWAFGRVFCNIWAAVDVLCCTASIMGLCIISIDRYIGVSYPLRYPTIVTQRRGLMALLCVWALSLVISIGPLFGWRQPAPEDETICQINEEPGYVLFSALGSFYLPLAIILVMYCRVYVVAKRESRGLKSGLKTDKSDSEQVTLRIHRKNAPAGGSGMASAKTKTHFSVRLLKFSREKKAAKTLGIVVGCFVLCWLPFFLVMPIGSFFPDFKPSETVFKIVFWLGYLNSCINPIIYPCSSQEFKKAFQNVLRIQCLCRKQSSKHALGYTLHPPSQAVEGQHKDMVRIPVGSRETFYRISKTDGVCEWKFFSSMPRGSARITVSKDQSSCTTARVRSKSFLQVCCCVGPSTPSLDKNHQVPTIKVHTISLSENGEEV
Procedure: (§1) Plasmids encoding each receptor, aequorin and Gα16 were prepared, and the plasmids were transfected into CHO cells (Chinese Hamster Ovary cells) or HEK293 cells (Human Embryonic Kidney 293 cells) to prepare expressing cell lines.
(§2) The agonistic or antagonistic activity of the present compound in the G protein dependent pathway was evaluated on the basis of intracellular calcium levels as follows. CHO-K1 or HEK293 cell lines transfected with D2, D4, α1A, or α2A receptor genes were seeded in a 384-well plate, and incubated in a CO2 incubator at 37° C. for 24 hours, and then a solution of the present compound in DMSO was added into cells preloaded with coelenterazine to measure the change in luminescent signals with a FDSS (Hamamatsu Photonics K.K.). […] The agonistic activity of the present compound was calculated according to the measured luminescent signals, as the maximal activity (Emax) of the present compound. On the other hand, the antagonistic activity of the present compound was calculated according to the luminescent signals in wells with 10 μM of an endogenous ligand alone defined as 100%, as the inhibitory activity of the present compound to an endogenous ligand. EC50 value was calculated as the concentration of the present compound required to achieve a 50% response, and IC50 was calculated as the concentration of the present compound required to achieve a 50% inhibition of the Emax of an endogenous ligand.

[3] = Brain penetration study in rat; assay type: in vivo; settings: brain and plasma, unbound brain-to-plasma drug concentration ratio
Procedure: In this study, the brain penetration of the present compound can be evaluated. Specifically, a 7-week-old SD-type or WKY-type rat received the subcutaneous administration of a solution of the present compound in saline or the oral administration of a suspension of the present compound in methylcellulose. Plasma and brain were collected from the treated rat 0.5 hour, 1 hour or 2 hours after the administration, and then the levels of the present compound in the plasma and the brain were measured by a LC-MS method.
The protein binding ratios of the present compound to the plasma and the brain were measured by an equilibrium dialysis method.
The levels of the present compound in the plasma and the brain as well as the plasma and brain protein binding ratios are applied to the following formula, and thus Kp,uu,brain (Unbound brain-to-plasma drug concentration ratio) can be calculated. Kp,uu,brain=(level of the present compound in the brain×(100−brain protein binding ratio (%))/100)/(level of the present compound in the plasma×(100−plasma protein binding ratio (%))/100)

[4] = PK study in rat (bioavailability); assay type: in vivo; settings: plasma, oral vs intravenous administration
Procedure: In this study, the pharmacokinetics of the present compound can be evaluated. Specifically, a 7-week-old SD-type or WKY-type rat received the intravenous administration of a solution of the present compound in saline or the oral administration of a suspension of the present compound in carboxymethylcellulose or methylcellulose. Blood was collected from the rat at each time below.
Intravenous administration: 5 minutes, 15 minutes, 30 minutes, 1 hour, 2 hours, 4 hours, 6 hours, and 24 hours after administration
Oral administration: 15 minutes, 30 minutes, 1 hour, 2 hours, 4 hours, 6 hours, and 24 hours after administration
Plasma was collected from the blood, the levels of the present compound in the plasma were measured by a LC-MS method, and then the pharmacokinetic parameters were calculated on the basis of the level changes.

[5] = target: T1, Human dopamine D4 receptor; experiment: Agonistic/antagonistic activity in G protein dependent pathway (aequorin intracellular calcium luminescence), D4; assay type: cell-based; parameters: expressed in transfected cells; host or cells: CHO-K1 or HEK293 cells; settings: for inhibition at 0.1 µM / inhibition at 1 µM: against 10 μM endogenous ligand, read-out: Inhibitory activity on each receptor (%): D4; for Emax at 0.1 µM / Emax at 1 µM: read-out: Maximal activity on each receptor (%): D4
Procedure: as §1, §2

Row | Maximal activity on D4 receptor (%) [1] [%] | Maximal activity on each receptor (%): α1A ([2]; 0.1 μM) [%] | inhibition at 0.1 µM ([2]; 0.1 μM) [%] | Maximal activity on each receptor (%): α1A ([2]; 1 μM) [%] | inhibition at 1 µM ([2]; 1 μM) [%] | Kp uu [3] | bioavailability [4] [%] | inhibition at 0.1 µM [5] [%] | inhibition at 1 µM [5] [%] | Emax at 0.1 µM [5] [%] | Emax at 1 µM [5] [%] | Compound
1 | 6 | 0.04 | 2.7 | 0.01 | 2.6 | 0.8 | 27.6 | 58 | 78 | 27 | 64 | Cc1ncc(CN2CCC(c3ccccn3)CC2)c(C)n1 [Example 44, 2,4-Dimethyl-5-[4-(pyridin-2-yl)piperidin-1-ylmethyl]pyrimidine]
2 | 9 | 0.03 | -5.6 | 0.08 | -0.73 | 0.8 | 21.6 | 72 | 87 | 20 | 35 | Cc1ncc(CN2CCC(c3cccnc3)CC2)c(C)n1 [Example 45, 2,4-Dimethyl-5-[4-(pyridin-3-yl)piperidin-1-ylmethyl]pyrimidine]
3 | 11 | 0.08 | -6.4 | 0.23 | -17 | 1.8 | 92.2 | 61 | 85 | 14 | 40 | Nc1ncc(CN2CCC(c3cncc(F)c3)CC2)cn1 [Example 46, 5-[4-(5-Fluoropyridin-3-yl)piperidin-1-ylmethyl]pyrimidin-2-amine]

From US9732065B2, “Cyclic aminomethyl pyrimidine derivative” (Sumitomo Dainippon Pharma Co., Ltd., priority 2013, dated 2017)
